Results taken from patent US6797807B1, “Compounds and methods for cancer therapy” (Adherex Technologies, Inc., priority 1997, dated 2004).

Tested on: Madin Darby canine kidney (MDCK) cells
Assay: Electrical resistance across MDCK cell monolayers
Assay type: cell-based
Details: 24 hours; for mean electrical resistance across MDCK cell monolayers: 0.5 mg/ml peptide, relative to the control (medium alone), FIG. 9; for formation of tight junctions in epithelial cells: conclusion from MDCK electrical resistance, 0.5 mg/ml
Procedure: Yet another assay evaluates the effect of an occludin modulating agent on the electrical resistance across a monolayer of cells. For example, Madin Darby canine kidney (MDCK) cells can be exposed to the modulating agent dissolved in medium (e.g., at a final concentration of 0.5 mg/ml for a period of 24 hours). The effect on electrical resistance can be measured using standard techniques. This assay evaluates the effect of a modulating agent on tight junction formation in epithelial cells. In general, the presence of 500 μg/mL modulating agent should result in a statistically significant increase or decrease in electrical resistance after 24 hours.
Madin Darby canine kidney (MDCK) cells were plated in Millicells (Millipore, Bedford, Mass.), at a density of 300,000 cells per Millicell, and cultured in Dulbecco's Modified Eagle Medium (DMEM; Sigma, St. Louis, Mo.) containing 5% fetal calf serum (Sigma, St. Louis, Mo.). Monolayers were exposed to the modulating agent dissolved in medium at a final concentration of 0.5 mg/ml for a period of 24 hours. The electrical resistance was measured using the EVOM device (World Precision Instruments, Sarasota, Fla.). At the time of measurement, fresh medium, with or without the modulating agent, may be added to the Millicells.

| Substance | mean electrical resistance across MDCK cell monolayers | formation of tight junctions in epithelial cells | formation of tight junctions in epithelial cells (listed as N-Ac-CLYHYC-NH2) |
| --- | --- | --- | --- |
| H-QYLYHYCVVD-NH2 [Peptide 2] | reduce the electrical resistance | – | – |
| acetyl-CLYHYC-NH2 (Ac-CLYHYC-NH2; also: cyclic, kind not given here) [Peptide 4] | increased the electrical resistance | stimulate the formation of tight junctions in epithelial cells | stimulating the formation of tight junctions in epithelial cells |
